Data taken from US20240262845A1, “PYRIDINIUM SALTS, METHODS OF MAKING, AND METHODS OF USE” (UNIVERSITY OF WYOMING, priority 2023, published 2024).
Structures can show the parent of a compound that is named as a salt.

Key:
[1] = target: T1, recombinant NPM1 C-terminal domain (residues 240-294) (Homo sapiens, UniProt P06748); assay: In vitro NPM1 C-terminal domain labeling (Western blot); assay type: biochemical; details: 10 μM NPM1, 100 μM probe, 100 μM glutathione, HEPES pH 7.5, about 440 nm, 15 min
T1 construct: 6×His (N, cleaved yes); made in house; host or cells: NiCo21(DE3) E. coli
T1 sequence (P06748 240-294): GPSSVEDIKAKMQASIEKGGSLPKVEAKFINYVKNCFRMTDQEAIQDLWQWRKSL
Procedure: In vitro NPM1 C-terminal domain labeling and characterization: Labeling of recombinant NPM1 with the pyridinium salt 2b was performed with the following conditions: 10 μM NPM1 was treated with DMSO or 100 μM pyridinium salt 2b (2% DMSO) in 50 mM HEPES pH 7.5, 150 mM NaCl, 1.5 mM MgCl2, and 100 μM glutathione (GSH). Samples were irradiated at 450 nm (Kessil PR160L-440) at 100% intensity for 15 minutes at room temperature or 50° C. The reaction mixture was quenched with the addition of 4X LDS buffer (Invitrogen) containing 10 mM DTT (Pierce) and boiled for 10 minutes before resolving proteins on 4-12% Bis-Tris NuPAGE gels (Invitrogen), transferred onto a Trans-Blot Turbo Mini 0.2 μm nitrocellulose membrane (BioRad), blocked with 5% BSA in tris-buffered saline with Tween-20 (TBST), and incubated with HRP-linked anti-biotin (Cell Signaling Technology, #7075).

Exenatide = Exenatide (Heloderma suspectum, UniProt P26349); assay: Photochemical labeling of exenatide with pyridinium salt (General Procedure B, LC/MS); assay type: biochemical; details: trypsin digest
Chain of Exenatide (P26349 48-86 limits assumed): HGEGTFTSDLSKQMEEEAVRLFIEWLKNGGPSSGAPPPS
Procedure: General Procedure B: Photochemical Irradiation of Peptides and Proteins: To a 2 mL Pyrex LC/MS vial (Thermo model #03-391-39) were sequentially added solutions containing the desired biomolecule, glutathione (GSH), pyridinium salt, and ammonium acetate (NH4OAc). The resulting solution was diluted to a final volume of 500 μL and then sparged using nitrogen for a minimum of 30 minutes prior to irradiation. The actively sparging solution was then placed in an EvoluChem™ PhotoRedOx Box photoreactor that was equipped with a Kessil, PR160 427 nm LED Lamp and was then irradiated (100% lamp intensity) for the designated time at room temperature while maintaining active sparging. The resultant reaction mixture was then analyzed directly by LC/MS. […]
Labeling of Exenatide with Pyridinium Salt 2a (Exenatide-2a Conjugate). […] The resulting reaction mixture was directly analyzed by LC/MS using method A and was estimated to have proceeded in 70% conversion. […]
General Trypsin Digest Protocol B: For non-cystine bridged labeled proteins, a standard trypsin digest was modified as follows. […] The digested mixture was analyzed directly by LC/MS and MS/MS using method C.
Exenatide-2a Conjugate. […] The digested mixture was analyzed directly by LC-MS and MS/MS. […]

Row | SMILES | Western analysis of construct labeling [1] | Modified Trp (Exenatide)
1 | COc1ccc2cc(-c3cc(C)[n+](N(C)C(=O)OCCCCC[C@H]4SC[C@H]5NC(=O)N[C@H]54)c(C)c3)ccc2c1 (stereo in doubt) [pyridinium salt 2b, 4-(6-methoxynaphthalen-2-yl)-2,6-dimethyl-1-(methyl(((5-((3aR,4R,6aS)-2-oxohexahydro-1H-thieno[3,4-d]imidazol-4-yl)pentyl)oxy)carbonyl)amino)pyridin-1-ium tetrafluoroborate] | photo-dependent labeling | 
2 | COC(=O)N(C)[n+]1c(C)cc(-c2ccc3cc(OC)ccc3c2)cc1C [pyridinium salt 2a, 1-((methoxycarbonyl)(methyl)amino)-4-(6-methoxynapthalen-2-yl)-2,6-dimethylpyridin-1-ium tetrafluoroborate] |  | Trp-025
